Source: paper PMC12621043, “Un-LOK-ing a New Approach for Conformational Selective Targeting of STK10 (LOK)” (ACS Medicinal Chemistry Letters, 2025)

molecular target: T1, STK10 (Homo sapiens, UniProt O94804); assay: DSF Tm panel; format: binding; settings: 10 μM compound
T1 construct: purchased in-house DSF kinase panel (SGC-style construct names; the trailing letter is the construct ID)
T1 sequence (O94804 18-317 limits assumed): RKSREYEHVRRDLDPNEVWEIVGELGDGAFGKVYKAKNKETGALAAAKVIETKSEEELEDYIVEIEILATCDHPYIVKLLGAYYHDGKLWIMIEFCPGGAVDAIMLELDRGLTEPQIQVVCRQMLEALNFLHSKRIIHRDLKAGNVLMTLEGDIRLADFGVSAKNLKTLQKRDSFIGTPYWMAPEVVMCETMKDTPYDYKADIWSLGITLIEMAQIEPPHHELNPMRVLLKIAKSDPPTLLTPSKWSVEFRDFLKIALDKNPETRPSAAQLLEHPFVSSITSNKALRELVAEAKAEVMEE

Compound | ΔTm at 10 µM [°C]
O=C(NCc1ccc(Cl)cc1)Nc1ccc2cc1OCCOCCNc1ccn3ncc-2c3n1 [compound 19] | 10
O=C(NCc1ccc(Cl)cc1Cl)Nc1ccc2cc1OCCOCCNc1ccn3ncc-2c3n1 [compound 20] | 9.6

molecular target: T2, UKL3A (ULK3A) (Homo sapiens, UniProt Q6PHR2); assay: DSF Tm panel; format: binding; settings: 10 μM compound
T2 construct: purchased in-house DSF kinase panel (SGC-style construct names; the trailing letter is the construct ID)
T2 sequence (Q6PHR2 1-279): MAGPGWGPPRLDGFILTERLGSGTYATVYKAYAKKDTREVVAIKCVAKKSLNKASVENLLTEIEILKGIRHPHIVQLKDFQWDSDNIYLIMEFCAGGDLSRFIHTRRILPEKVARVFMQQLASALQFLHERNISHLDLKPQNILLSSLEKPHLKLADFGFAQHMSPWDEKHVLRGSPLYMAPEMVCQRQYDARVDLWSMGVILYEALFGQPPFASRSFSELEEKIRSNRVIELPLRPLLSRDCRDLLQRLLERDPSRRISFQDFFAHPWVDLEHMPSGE

Compound | ΔTm at 10 µM [°C]
O=C(NCc1ccc(Cl)cc1)Nc1ccc2cc1OCCOCCNc1ccn3ncc-2c3n1 [compound 19] | 4.6
O=C(NCc1ccc(Cl)cc1Cl)Nc1ccc2cc1OCCOCCNc1ccn3ncc-2c3n1 [compound 20] | 2.3

molecular target: T3, CLK1A (Homo sapiens, UniProt P49759); assay: DSF Tm panel; format: binding; settings: 10 μM compound
T3 construct: purchased in-house DSF kinase panel (SGC-style construct names; the trailing letter is the construct ID)
T3 sequence (P49759 148-484): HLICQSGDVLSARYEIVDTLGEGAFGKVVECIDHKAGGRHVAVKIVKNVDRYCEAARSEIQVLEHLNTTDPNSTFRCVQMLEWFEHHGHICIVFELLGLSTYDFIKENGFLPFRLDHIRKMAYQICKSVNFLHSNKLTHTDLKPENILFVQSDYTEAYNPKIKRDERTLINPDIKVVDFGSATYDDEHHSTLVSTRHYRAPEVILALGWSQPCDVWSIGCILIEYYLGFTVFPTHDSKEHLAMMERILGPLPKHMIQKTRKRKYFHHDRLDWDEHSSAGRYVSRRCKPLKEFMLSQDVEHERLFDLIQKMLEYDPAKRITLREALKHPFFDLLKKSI

Compound | ΔTm at 10 µM [°C]
O=C(NCc1ccc(Cl)cc1)Nc1ccc2cc1OCCOCCNc1ccn3ncc-2c3n1 [compound 19] | 2.1
O=C(NCc1ccc(Cl)cc1Cl)Nc1ccc2cc1OCCOCCNc1ccn3ncc-2c3n1 [compound 20] | 2.1

molecular target: T4, DAPK3 (DAPK3A) (Homo sapiens, UniProt O43293); assay: DSF Tm panel; format: binding; settings: 10 μM compound
T4 construct: purchased in-house DSF kinase panel (SGC-style construct names; the trailing letter is the construct ID)
T4 sequence (O43293 whole entry): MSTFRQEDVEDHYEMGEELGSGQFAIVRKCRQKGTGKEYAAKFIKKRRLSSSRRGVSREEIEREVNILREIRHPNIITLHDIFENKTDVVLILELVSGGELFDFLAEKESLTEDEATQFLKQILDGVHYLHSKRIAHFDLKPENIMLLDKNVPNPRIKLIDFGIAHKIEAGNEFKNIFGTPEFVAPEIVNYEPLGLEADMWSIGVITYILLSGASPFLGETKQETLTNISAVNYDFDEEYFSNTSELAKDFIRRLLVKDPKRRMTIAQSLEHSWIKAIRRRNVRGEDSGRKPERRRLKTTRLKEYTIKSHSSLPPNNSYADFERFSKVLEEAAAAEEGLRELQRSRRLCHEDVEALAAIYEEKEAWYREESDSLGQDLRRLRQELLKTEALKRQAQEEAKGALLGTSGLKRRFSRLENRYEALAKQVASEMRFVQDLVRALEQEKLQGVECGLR

Compound | ΔTm at 10 µM [°C]
O=C(NCc1ccc(Cl)cc1)Nc1ccc2cc1OCCOCCNc1ccn3ncc-2c3n1 [compound 19] | 0.9
O=C(NCc1ccc(Cl)cc1Cl)Nc1ccc2cc1OCCOCCNc1ccn3ncc-2c3n1 [compound 20] | 0.5

molecular target: T5, MAP3K5A (Homo sapiens, UniProt Q99683); assay: DSF Tm panel; format: binding; settings: 10 μM compound
T5 construct: purchased in-house DSF kinase panel (SGC-style construct names; the trailing letter is the construct ID)
T5 sequence (Q99683 659-951): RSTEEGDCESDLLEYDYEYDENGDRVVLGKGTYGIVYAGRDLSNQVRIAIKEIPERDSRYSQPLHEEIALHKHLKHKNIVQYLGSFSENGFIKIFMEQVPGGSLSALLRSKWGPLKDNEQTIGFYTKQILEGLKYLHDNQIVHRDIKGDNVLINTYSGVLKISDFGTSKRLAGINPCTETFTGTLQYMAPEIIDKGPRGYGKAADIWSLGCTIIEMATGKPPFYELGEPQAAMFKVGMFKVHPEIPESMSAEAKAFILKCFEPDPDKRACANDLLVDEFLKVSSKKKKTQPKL

Compound | ΔTm at 10 µM [°C]
O=C(NCc1ccc(Cl)cc1)Nc1ccc2cc1OCCOCCNc1ccn3ncc-2c3n1 [compound 19] | 1.4
O=C(NCc1ccc(Cl)cc1Cl)Nc1ccc2cc1OCCOCCNc1ccn3ncc-2c3n1 [compound 20] | 2.2

molecular target: T6, PCTK1A (Homo sapiens, UniProt Q00536); assay: DSF Tm panel; format: binding; settings: 10 μM compound
T6 construct: purchased in-house DSF kinase panel (SGC-style construct names; the trailing letter is the construct ID)
T6 sequence (Q00536 163-478): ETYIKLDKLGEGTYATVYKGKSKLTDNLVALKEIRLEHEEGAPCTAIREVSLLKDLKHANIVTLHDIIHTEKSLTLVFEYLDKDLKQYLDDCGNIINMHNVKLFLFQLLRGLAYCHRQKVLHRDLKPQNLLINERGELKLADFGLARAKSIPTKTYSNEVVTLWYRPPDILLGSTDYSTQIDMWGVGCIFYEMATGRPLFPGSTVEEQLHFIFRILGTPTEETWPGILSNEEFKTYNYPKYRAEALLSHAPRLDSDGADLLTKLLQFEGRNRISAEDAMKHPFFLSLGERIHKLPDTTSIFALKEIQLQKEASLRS

Compound | ΔTm at 10 µM [°C]
O=C(NCc1ccc(Cl)cc1)Nc1ccc2cc1OCCOCCNc1ccn3ncc-2c3n1 [compound 19] | 1.3
O=C(NCc1ccc(Cl)cc1Cl)Nc1ccc2cc1OCCOCCNc1ccn3ncc-2c3n1 [compound 20] | 1.1

molecular target: T7, MAP2K6A (Homo sapiens, UniProt P52564); assay: DSF Tm panel; format: binding; settings: 10 μM compound
T7 construct: purchased in-house DSF kinase panel (SGC-style construct names; the trailing letter is the construct ID)
T7 sequence (P52564 53-314): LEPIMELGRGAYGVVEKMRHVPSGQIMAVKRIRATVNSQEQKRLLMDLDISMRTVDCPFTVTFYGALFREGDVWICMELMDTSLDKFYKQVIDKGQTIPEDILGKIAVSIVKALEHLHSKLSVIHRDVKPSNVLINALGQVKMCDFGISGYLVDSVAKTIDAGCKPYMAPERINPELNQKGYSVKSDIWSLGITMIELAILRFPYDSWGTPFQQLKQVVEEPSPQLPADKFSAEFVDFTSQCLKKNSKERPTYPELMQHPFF

Compound | ΔTm at 10 µM [°C]
O=C(NCc1ccc(Cl)cc1)Nc1ccc2cc1OCCOCCNc1ccn3ncc-2c3n1 [compound 19] | 1.1
O=C(NCc1ccc(Cl)cc1Cl)Nc1ccc2cc1OCCOCCNc1ccn3ncc-2c3n1 [compound 20] | 1.1

molecular target: T8, CAMK2BA (Homo sapiens, UniProt Q13554); assay: DSF Tm panel; format: binding; settings: 10 μM compound
T8 construct: purchased in-house DSF kinase panel (SGC-style construct names; the trailing letter is the construct ID)
T8 sequence (Q13554 11-303): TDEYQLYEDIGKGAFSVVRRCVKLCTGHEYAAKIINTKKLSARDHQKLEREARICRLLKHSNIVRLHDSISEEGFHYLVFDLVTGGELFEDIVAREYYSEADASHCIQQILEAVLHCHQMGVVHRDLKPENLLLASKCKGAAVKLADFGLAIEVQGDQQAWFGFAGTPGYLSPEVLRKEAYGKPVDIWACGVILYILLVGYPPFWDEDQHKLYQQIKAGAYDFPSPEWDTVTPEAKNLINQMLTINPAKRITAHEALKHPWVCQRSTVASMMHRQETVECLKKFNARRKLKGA

Compound | ΔTm at 10 µM [°C]
O=C(NCc1ccc(Cl)cc1)Nc1ccc2cc1OCCOCCNc1ccn3ncc-2c3n1 [compound 19] | -0.1
O=C(NCc1ccc(Cl)cc1Cl)Nc1ccc2cc1OCCOCCNc1ccn3ncc-2c3n1 [compound 20] | 1.6

molecular target: T9, ABL1 (ABL1A) (Homo sapiens, UniProt P00519); assay: DSF Tm panel; format: binding; settings: 10 μM compound
T9 construct: purchased in-house DSF kinase panel (SGC-style construct names; the trailing letter is the construct ID)
T9 sequence (P00519 229-512): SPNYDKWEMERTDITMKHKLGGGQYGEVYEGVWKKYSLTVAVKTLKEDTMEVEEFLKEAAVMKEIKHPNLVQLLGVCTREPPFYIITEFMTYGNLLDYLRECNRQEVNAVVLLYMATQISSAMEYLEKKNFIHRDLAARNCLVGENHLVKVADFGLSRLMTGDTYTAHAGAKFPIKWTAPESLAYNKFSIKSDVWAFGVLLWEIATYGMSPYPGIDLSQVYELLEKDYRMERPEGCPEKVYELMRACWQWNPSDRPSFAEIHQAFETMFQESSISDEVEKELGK

Compound | ΔTm at 10 µM [°C]
O=C(NCc1ccc(Cl)cc1)Nc1ccc2cc1OCCOCCNc1ccn3ncc-2c3n1 [compound 19] | 1.8
O=C(NCc1ccc(Cl)cc1Cl)Nc1ccc2cc1OCCOCCNc1ccn3ncc-2c3n1 [compound 20] | 2.2

molecular target: T10, PIM1 (PIM1A) (Homo sapiens, UniProt P11309); assay: DSF Tm panel; format: binding; settings: 10 μM compound
T10 construct: purchased in-house DSF kinase panel (SGC-style construct names; the trailing letter is the construct ID)
T10 sequence (P11309 whole entry): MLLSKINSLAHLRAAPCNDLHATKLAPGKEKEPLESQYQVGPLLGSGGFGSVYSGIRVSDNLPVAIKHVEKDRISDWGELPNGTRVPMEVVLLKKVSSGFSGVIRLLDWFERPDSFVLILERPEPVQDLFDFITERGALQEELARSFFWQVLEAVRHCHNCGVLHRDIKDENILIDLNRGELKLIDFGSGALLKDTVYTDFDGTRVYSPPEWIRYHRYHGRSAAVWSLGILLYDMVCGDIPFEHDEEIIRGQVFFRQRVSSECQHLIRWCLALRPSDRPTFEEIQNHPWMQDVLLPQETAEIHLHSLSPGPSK

Compound | ΔTm at 10 µM [°C]
O=C(NCc1ccc(Cl)cc1)Nc1ccc2cc1OCCOCCNc1ccn3ncc-2c3n1 [compound 19] | 1.8
O=C(NCc1ccc(Cl)cc1Cl)Nc1ccc2cc1OCCOCCNc1ccn3ncc-2c3n1 [compound 20] | 3

molecular target: T11, GPRK5A (Homo sapiens, UniProt P34947); assay: DSF Tm panel; format: binding; settings: 10 μM compound
T11 construct: purchased in-house DSF kinase panel (SGC-style construct names; the trailing letter is the construct ID)
T11 sequence (P34947 186-514): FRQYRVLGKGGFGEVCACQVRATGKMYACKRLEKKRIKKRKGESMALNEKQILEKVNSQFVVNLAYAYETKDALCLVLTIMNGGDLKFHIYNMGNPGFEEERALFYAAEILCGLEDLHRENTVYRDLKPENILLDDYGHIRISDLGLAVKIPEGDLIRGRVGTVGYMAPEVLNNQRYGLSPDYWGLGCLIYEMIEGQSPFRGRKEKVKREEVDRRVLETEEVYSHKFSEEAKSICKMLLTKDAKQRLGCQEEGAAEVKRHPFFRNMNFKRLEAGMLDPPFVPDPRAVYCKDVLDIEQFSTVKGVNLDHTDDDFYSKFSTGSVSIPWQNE

Compound | ΔTm at 10 µM [°C]
O=C(NCc1ccc(Cl)cc1)Nc1ccc2cc1OCCOCCNc1ccn3ncc-2c3n1 [compound 19] | 1.5
O=C(NCc1ccc(Cl)cc1Cl)Nc1ccc2cc1OCCOCCNc1ccn3ncc-2c3n1 [compound 20] | 1.3

molecular target: T12, BRAFA (Homo sapiens, UniProt P15056); assay: DSF Tm panel; format: binding; settings: 10 μM compound
T12 construct: purchased in-house DSF kinase panel (SGC-style construct names; the trailing letter is the construct ID)
T12 sequence (P15056 448-723): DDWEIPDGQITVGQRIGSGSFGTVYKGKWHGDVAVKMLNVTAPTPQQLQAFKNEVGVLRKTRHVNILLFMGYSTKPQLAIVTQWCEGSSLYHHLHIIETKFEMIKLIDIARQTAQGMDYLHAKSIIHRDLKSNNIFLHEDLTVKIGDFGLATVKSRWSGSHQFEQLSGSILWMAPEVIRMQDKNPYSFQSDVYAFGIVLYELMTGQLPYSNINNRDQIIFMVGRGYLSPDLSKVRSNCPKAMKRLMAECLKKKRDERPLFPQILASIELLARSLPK

Compound | ΔTm at 10 µM [°C]
O=C(NCc1ccc(Cl)cc1)Nc1ccc2cc1OCCOCCNc1ccn3ncc-2c3n1 [compound 19] | 0.8
O=C(NCc1ccc(Cl)cc1Cl)Nc1ccc2cc1OCCOCCNc1ccn3ncc-2c3n1 [compound 20] | 0.4

molecular target: T13, CSNK1DA (Homo sapiens, UniProt P48730); assay: DSF Tm panel; format: binding; settings: 10 μM compound
T13 construct: purchased in-house DSF kinase panel (SGC-style construct names; the trailing letter is the construct ID)
T13 sequence (P48730 1-294): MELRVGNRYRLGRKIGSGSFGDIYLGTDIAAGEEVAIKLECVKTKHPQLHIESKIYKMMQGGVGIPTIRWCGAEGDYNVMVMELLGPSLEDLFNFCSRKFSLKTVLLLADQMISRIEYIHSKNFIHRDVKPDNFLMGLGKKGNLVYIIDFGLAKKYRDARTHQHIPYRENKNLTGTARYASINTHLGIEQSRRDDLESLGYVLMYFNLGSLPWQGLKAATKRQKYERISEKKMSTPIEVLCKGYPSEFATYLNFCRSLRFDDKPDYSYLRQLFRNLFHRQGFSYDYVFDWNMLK

Compound | ΔTm at 10 µM [°C]
O=C(NCc1ccc(Cl)cc1)Nc1ccc2cc1OCCOCCNc1ccn3ncc-2c3n1 [compound 19] | 0.4
O=C(NCc1ccc(Cl)cc1Cl)Nc1ccc2cc1OCCOCCNc1ccn3ncc-2c3n1 [compound 20] | 0.4

molecular target: T14, OSR1A (Homo sapiens, UniProt O95747); assay: DSF Tm panel; format: binding; settings: 10 μM compound
T14 construct: purchased in-house DSF kinase panel (SGC-style construct names; the trailing letter is the construct ID)
T14 sequence (O95747 17-291): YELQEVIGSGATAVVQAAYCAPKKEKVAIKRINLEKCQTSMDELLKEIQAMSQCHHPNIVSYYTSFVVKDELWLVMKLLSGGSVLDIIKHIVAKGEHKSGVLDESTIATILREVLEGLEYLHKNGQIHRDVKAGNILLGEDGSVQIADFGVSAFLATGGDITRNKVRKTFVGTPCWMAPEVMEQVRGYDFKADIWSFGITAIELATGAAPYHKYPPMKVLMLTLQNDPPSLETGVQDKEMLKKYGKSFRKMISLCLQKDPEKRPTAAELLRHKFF

Compound | ΔTm at 10 µM [°C]
O=C(NCc1ccc(Cl)cc1)Nc1ccc2cc1OCCOCCNc1ccn3ncc-2c3n1 [compound 19] | 0.7
O=C(NCc1ccc(Cl)cc1Cl)Nc1ccc2cc1OCCOCCNc1ccn3ncc-2c3n1 [compound 20] | 1.8

molecular target: T15, DMPK1A (Homo sapiens, UniProt Q09013); assay: DSF Tm panel; format: binding; settings: 10 μM compound
T15 construct: purchased in-house DSF kinase panel (SGC-style construct names; the trailing letter is the construct ID)
T15 sequence (Q09013 1-629): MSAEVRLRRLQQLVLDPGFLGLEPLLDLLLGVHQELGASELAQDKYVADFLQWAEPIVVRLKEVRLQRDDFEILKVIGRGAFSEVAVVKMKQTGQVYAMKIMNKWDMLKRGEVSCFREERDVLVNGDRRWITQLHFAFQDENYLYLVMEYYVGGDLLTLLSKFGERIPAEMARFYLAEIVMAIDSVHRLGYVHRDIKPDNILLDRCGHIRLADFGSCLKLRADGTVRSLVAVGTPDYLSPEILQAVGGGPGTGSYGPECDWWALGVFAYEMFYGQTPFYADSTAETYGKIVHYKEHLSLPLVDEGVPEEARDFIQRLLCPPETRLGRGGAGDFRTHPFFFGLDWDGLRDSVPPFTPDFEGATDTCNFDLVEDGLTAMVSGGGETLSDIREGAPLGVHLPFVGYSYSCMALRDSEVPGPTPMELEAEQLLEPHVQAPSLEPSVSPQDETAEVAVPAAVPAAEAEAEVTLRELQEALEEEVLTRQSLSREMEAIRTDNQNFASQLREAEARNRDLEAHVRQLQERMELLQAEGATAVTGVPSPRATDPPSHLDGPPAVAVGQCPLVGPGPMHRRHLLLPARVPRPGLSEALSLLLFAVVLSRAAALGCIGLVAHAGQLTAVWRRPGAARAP

Compound | ΔTm at 10 µM [°C]
O=C(NCc1ccc(Cl)cc1)Nc1ccc2cc1OCCOCCNc1ccn3ncc-2c3n1 [compound 19] | 0.3
O=C(NCc1ccc(Cl)cc1Cl)Nc1ccc2cc1OCCOCCNc1ccn3ncc-2c3n1 [compound 20] | 0.7

molecular target: T16, SRPK1A (Homo sapiens, UniProt Q96SB4); assay: DSF Tm panel; format: binding; settings: 10 μM compound
T16 construct: purchased in-house DSF kinase panel (SGC-style construct names; the trailing letter is the construct ID)
T16 sequence (Q96SB4 80-653): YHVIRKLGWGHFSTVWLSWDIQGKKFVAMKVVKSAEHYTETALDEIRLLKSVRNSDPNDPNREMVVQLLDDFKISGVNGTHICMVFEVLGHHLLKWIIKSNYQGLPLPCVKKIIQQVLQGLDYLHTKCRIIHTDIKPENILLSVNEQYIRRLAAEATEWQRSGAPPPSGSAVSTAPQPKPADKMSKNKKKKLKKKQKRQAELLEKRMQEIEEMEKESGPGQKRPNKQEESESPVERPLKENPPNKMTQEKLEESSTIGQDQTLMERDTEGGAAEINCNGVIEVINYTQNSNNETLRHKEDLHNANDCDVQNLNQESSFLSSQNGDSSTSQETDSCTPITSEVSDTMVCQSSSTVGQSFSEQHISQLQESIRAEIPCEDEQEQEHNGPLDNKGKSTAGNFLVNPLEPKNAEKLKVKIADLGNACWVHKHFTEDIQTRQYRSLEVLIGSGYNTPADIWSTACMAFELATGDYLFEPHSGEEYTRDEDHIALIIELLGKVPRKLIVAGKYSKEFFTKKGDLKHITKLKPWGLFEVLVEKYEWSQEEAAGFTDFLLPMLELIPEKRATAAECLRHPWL

Compound | ΔTm at 10 µM [°C]
O=C(NCc1ccc(Cl)cc1)Nc1ccc2cc1OCCOCCNc1ccn3ncc-2c3n1 [compound 19] | 0.2
O=C(NCc1ccc(Cl)cc1Cl)Nc1ccc2cc1OCCOCCNc1ccn3ncc-2c3n1 [compound 20] | 0.6

molecular target: T17, AKT3A (Homo sapiens, UniProt Q9Y243); assay: DSF Tm panel; format: binding; settings: 10 μM compound
T17 construct: purchased in-house DSF kinase panel (SGC-style construct names; the trailing letter is the construct ID)
T17 sequence (Q9Y243 148-479): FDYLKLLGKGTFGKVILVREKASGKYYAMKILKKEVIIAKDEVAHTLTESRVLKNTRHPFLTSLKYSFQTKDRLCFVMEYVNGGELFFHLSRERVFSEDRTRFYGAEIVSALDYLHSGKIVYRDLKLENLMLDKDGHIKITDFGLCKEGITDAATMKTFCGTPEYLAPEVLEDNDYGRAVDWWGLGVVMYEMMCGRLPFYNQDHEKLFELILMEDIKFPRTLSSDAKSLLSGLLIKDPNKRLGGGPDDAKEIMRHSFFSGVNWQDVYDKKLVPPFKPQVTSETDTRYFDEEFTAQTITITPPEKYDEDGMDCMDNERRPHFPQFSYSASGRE

Compound | ΔTm at 10 µM [°C]
O=C(NCc1ccc(Cl)cc1)Nc1ccc2cc1OCCOCCNc1ccn3ncc-2c3n1 [compound 19] | -0.4
O=C(NCc1ccc(Cl)cc1Cl)Nc1ccc2cc1OCCOCCNc1ccn3ncc-2c3n1 [compound 20] | 0.4

molecular target: T18, MAPK14A (Homo sapiens, UniProt Q16539); assay: DSF Tm panel; format: binding; settings: 10 μM compound
T18 construct: purchased in-house DSF kinase panel (SGC-style construct names; the trailing letter is the construct ID)
T18 sequence (Q16539 whole entry): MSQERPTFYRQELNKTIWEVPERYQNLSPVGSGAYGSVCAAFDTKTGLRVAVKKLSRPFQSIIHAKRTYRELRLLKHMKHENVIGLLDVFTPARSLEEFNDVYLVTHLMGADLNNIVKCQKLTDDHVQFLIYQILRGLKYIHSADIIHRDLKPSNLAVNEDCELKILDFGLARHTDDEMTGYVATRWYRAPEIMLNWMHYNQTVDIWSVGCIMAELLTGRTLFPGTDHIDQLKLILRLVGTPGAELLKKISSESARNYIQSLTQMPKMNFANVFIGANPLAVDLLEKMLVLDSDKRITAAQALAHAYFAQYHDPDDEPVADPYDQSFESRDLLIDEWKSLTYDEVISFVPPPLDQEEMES

Compound | ΔTm at 10 µM [°C]
O=C(NCc1ccc(Cl)cc1)Nc1ccc2cc1OCCOCCNc1ccn3ncc-2c3n1 [compound 19] | 0.1
O=C(NCc1ccc(Cl)cc1Cl)Nc1ccc2cc1OCCOCCNc1ccn3ncc-2c3n1 [compound 20] | 0.8
